Data: ChEMBL document CHEMBL3400125, “Discovery of novel 2-(alkylmorpholin-4-yl)-6-(3-fluoropyridin-4-yl)-pyrimidin-4(3H)-ones as orally-active GSK-3β inhibitors for Alzheimer's disease” (Bioorg Med Chem Lett, 2015)
pIC50: −log10 of the molar value.

Experiments:
Cytochrome P450 3A4 = Cytochrome P450 3A4 (Homo sapiens, UniProt P08684); assay: Inhibition of recombinant human CYP3A4; format: ADME
[1] = Intrinsic clearance in human liver microsomes; format: ADME
[2] = target: Glycogen synthase kinase-3 beta (Homo sapiens, UniProt P49841); assay: Inhibition of human recombinant GSK3beta assessed as inhibition of [gamma32P]ATP after 1 hr by liquid scintillation counting in presence of prephosphorylated GS1 peptide
[3] = Permeability across human Caco2 cells; format: ADME, cell-based; details: Caco-2, read-out: permeability
Cytochrome P450 2D6 = Cytochrome P450 2D6 (Homo sapiens, UniProt P10635); assay: Inhibition of recombinant human CYP2D6; format: ADME
Cytochrome P450 1A2 = target: T1, Cytochrome P450 1A2 (Homo sapiens, UniProt P05177); assay: Inhibition of recombinant human CYP1A2; format: ADME
T1 sequence (P05177 whole entry): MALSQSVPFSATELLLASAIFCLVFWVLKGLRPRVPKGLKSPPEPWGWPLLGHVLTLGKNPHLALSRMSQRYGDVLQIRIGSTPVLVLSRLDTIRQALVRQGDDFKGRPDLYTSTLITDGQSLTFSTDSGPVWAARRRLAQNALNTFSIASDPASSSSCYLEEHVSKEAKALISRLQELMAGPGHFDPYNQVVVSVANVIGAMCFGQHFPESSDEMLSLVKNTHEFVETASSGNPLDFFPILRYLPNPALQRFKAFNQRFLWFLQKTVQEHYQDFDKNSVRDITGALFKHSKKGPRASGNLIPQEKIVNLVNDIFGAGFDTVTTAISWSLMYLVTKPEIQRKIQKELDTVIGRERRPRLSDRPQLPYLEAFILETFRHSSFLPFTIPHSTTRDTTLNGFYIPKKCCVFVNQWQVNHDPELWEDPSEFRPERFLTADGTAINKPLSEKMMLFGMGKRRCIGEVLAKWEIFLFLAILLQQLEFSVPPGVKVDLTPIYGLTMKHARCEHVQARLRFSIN

Mus musculus = assay: Inhibition of GSK3beta-mediated tau phosphorylation at Ser396 residue in po dosed CD-1 mouse measured 1 hr post dose; format: functional; details: CD-1, po

Glycogen synthase kinase-3 beta, sequence (P49841 whole entry): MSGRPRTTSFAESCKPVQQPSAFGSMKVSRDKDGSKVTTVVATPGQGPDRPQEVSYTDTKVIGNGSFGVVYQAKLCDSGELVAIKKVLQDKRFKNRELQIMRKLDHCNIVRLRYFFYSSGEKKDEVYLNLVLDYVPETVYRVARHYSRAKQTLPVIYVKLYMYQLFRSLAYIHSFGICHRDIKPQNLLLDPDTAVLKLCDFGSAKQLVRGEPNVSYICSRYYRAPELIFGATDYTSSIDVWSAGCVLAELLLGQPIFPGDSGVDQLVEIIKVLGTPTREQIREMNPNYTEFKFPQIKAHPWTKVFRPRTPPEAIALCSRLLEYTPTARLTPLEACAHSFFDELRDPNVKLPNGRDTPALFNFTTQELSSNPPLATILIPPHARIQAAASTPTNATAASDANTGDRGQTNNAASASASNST
Cytochrome P450 2D6, sequence (P10635 whole entry): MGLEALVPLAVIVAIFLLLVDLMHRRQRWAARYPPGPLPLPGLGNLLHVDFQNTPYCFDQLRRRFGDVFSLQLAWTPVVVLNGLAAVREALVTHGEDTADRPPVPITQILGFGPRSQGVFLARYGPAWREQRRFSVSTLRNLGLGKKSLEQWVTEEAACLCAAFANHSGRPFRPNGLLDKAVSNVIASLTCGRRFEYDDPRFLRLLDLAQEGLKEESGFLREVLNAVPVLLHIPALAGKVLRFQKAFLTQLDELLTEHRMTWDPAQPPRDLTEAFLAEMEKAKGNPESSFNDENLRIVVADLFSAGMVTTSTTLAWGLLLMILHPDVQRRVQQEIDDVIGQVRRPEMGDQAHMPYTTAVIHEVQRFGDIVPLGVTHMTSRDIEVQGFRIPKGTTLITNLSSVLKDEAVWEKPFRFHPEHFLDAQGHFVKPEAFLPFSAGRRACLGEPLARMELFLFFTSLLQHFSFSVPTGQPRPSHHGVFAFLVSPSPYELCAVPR
Cytochrome P450 3A4, sequence (P08684 whole entry): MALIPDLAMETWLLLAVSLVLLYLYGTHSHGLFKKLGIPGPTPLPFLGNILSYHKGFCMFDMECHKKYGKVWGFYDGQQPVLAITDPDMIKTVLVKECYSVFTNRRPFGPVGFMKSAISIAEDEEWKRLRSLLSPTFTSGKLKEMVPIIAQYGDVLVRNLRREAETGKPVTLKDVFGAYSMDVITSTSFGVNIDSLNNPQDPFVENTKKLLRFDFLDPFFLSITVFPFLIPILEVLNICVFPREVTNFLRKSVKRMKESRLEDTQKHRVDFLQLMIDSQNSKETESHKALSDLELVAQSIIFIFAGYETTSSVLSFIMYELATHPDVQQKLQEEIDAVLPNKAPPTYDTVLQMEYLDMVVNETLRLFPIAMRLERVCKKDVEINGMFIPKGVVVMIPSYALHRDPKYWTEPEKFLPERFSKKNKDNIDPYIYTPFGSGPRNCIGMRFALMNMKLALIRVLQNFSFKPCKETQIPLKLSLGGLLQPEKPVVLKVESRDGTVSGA

Row | Structure (SMILES) | pIC50 (Cytochrome P450 3A4) | CLint scaled [1] | pIC50 [2] | Papp [3] | pIC50 (Cytochrome P450 2D6) | pIC50 (Cytochrome P450 1A2) | ED50 (Mus musculus)
1 | Cn1c(N2CCO[C@@H](c3ccc(F)cc3)C2)nc(-c2ccncn2)cc1=O | < 4.30 | 0.06 mL/min/mg |  |  |  |  | 
2 | Cn1c(N2CCOCC2)nc(-c2ccncc2F)cc1=O |  |  | 7.17 |  |  |  | 
3 | CC[C@@H]1COCCN1c1nc(-c2ccncc2F)cc(=O)n1C |  |  | 7.72 |  |  |  | 
4 | CC(C)[C@@H]1COCCN1c1nc(-c2ccncc2F)cc(=O)n1C |  |  | 7.85 |  |  |  | 
5 | CC[C@H]1COCCN1c1nc(-c2ccncc2F)cc(=O)n1C |  |  | 7.52 |  |  |  | 
6 | Cn1c(N2CCO[C@@H]3CCCC[C@H]32)nc(-c2ccncc2F)cc1=O | < 4.30 | 0.2 mL/min/mg | 8.43 | 41.8 ×10⁻⁶ cm/s | < 4.30 | 4.85 | 
7 | CC(C)C1CN(c2nc(-c3ccncc3F)cc(=O)n2C)CCO1 (racemic) | < 4.30 | 0.07 mL/min/mg | 7.77 |  | < 4.30 | 5.48 | 
8 | CCCCC1CN(c2nc(-c3ccncc3F)cc(=O)n2C)CCO1 (racemic) | < 4.30 | 0.21 mL/min/mg | 7.92 |  | 5.64 | 5.12 | 
9 | Cn1c(N2CCOC(C3CCC3)C2)nc(-c2ccncc2F)cc1=O (racemic) | < 4.30 | 0.2 mL/min/mg | 7.92 |  | 4.42 | 5.82 | 

More lines, main results first:

Row | pIC50 (Cytochrome P450 3A4) | CLint scaled [1] | pIC50 [2] | Papp [3] | pIC50 (Cytochrome P450 2D6) | pIC50 (Cytochrome P450 1A2) | Structure (SMILES) | ED50 (Mus musculus)
10 | < 4.30 | 0.03 mL/min/mg | 8.15 | 54.6 ×10⁻⁶ cm/s | < 4.30 | 4.73 | C[C@@H]1COCCN1c1nc(-c2ccncc2F)cc(=O)n1C | 6.8 mg/kg
11 | < 4.30 | 0.02 mL/min/mg | 7.64 |  | < 4.30 | 5.24 | C[C@H]1COCCN1c1nc(-c2ccncc2F)cc(=O)n1C | 
12 |  |  | 6.34 |  |  |  | C[C@@H]1CN(c2nc(-c3ccncc3F)cc(=O)n2C)[C@H](C)CO1 | 
13 |  |  | 7.39 |  |  |  | C[C@@H]1CO[C@@H](C)CN1c1nc(-c2ccncc2F)cc(=O)n1C | 
14 |  |  | 7.72 |  |  |  | C[C@@H]1OCCN(c2nc(-c3ccncc3F)cc(=O)n2C)[C@H]1C | 
15 | < 4.30 |  | 8.31 | 48.5 ×10⁻⁶ cm/s | < 4.30 | 4.80 | C[C@@H]1[C@@H](C)OCCN1c1nc(-c2ccncc2F)cc(=O)n1C | 
16 | < 4.30 | 0.04 mL/min/mg | 8.38 | 44.5 ×10⁻⁶ cm/s | < 4.30 | 4.68 | Cn1c(N2CCO[C@@H]3CCC[C@H]32)nc(-c2ccncc2F)cc1=O | 
17 |  |  | 7.46 |  |  |  | Cn1c(N2CCO[C@H]3CCC[C@@H]32)nc(-c2ccncc2F)cc1=O | 
18 | < 4.30 | 0.02 mL/min/mg | 8.51 | 54.5 ×10⁻⁶ cm/s | < 4.30 | < 4.30 | Cn1c(N2CCO[C@@H]3COC[C@H]32)nc(-c2ccncc2F)cc1=O | 
19 |  |  | 8.01 |  |  |  | CC1N(c2nc(-c3ccncc3F)cc(=O)n2C)CCOC1(C)C (racemic) | 
20 |  |  | 7.80 |  |  |  | C[C@@H]1OCCN(c2nc(-c3ccncc3F)cc(=O)n2C)[C@@H]1C (stereo in doubt; 13) | 
21 |  |  | 7.49 |  |  |  | C[C@@H]1OCCN(c2nc(-c3ccncc3F)cc(=O)n2C)[C@@H]1C (stereo in doubt; 14) | 
